Results taken from US20230416248A1, “COMPOUNDS AND USES THEREOF” (Foghorn Therapeutics Inc., priority 2020, published 2023).
Read-outs that look alike come from different tables or passages of the source.

How the values were obtained:
BRM = molecular target: T1, BRM (Homo sapiens, UniProt P51531); test: ATPase catalytic activity of BRM, ADP-Glo in vitro biochemical assay; conditions: for IC50: 30 nM BRM, 400 μM ATP; for Ratio* (BRG1 IC50 (μM) divided by BRM IC50 (μM)): selectivity ratio BRG1 IC50 / BRM IC50
T1 construct: made in house; host or cells: High Five insect cells
T1 sequence (P51531 whole entry): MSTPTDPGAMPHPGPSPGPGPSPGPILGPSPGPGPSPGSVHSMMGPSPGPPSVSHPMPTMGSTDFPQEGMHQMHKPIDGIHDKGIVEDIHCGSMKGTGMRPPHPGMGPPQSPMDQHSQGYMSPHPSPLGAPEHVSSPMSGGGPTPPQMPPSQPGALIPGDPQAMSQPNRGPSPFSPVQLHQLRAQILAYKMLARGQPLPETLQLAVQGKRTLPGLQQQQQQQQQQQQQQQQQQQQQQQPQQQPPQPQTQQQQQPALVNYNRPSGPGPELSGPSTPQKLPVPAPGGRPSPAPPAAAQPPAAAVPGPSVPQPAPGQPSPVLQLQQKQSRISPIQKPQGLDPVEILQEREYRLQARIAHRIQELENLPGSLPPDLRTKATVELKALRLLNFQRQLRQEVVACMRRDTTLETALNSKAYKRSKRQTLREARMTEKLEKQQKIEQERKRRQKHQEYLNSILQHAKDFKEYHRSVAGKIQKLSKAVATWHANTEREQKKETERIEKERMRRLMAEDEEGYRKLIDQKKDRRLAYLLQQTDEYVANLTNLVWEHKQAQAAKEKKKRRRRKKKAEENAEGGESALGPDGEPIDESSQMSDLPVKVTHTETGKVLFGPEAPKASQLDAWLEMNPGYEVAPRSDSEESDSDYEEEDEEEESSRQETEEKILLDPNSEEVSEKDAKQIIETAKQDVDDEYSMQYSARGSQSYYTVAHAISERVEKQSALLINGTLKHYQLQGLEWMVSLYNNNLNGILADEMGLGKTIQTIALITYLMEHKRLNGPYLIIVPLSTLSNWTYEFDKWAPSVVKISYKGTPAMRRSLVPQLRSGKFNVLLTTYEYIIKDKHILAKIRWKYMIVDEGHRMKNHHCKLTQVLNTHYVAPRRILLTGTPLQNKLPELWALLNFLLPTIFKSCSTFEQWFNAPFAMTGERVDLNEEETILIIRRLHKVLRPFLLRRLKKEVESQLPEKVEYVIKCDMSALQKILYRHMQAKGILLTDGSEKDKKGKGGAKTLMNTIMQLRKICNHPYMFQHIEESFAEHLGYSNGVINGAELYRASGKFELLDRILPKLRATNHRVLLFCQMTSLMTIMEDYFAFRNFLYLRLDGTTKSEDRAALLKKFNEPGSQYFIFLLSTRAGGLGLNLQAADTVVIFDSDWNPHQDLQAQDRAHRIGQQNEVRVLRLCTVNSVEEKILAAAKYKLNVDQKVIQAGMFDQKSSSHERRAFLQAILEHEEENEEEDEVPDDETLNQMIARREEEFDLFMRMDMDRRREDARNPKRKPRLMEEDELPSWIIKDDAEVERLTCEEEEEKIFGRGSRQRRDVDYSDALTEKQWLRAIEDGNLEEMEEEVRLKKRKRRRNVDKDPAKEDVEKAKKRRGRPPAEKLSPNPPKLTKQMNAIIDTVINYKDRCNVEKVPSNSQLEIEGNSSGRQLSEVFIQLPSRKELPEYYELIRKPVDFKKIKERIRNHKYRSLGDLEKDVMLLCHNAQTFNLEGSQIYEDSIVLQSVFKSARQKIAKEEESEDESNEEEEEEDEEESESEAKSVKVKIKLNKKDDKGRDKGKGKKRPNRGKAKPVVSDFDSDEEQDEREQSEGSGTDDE
Outline: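 ADP-Glo luminescence, after depletion of leftover ATP and conversion of ADP, reported the activity. The 1 h room-temperature reaction held 400 μM ATP, 20 nM salmon sperm DNA and 30 nM BRM in 20 mM Tris pH 8, 20 mM MgCl2, 50 mM NaCl, 0.1% Tween-20, 1 mM DTT.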

BRG-1 = molecular target: T2, BRG-1 (Homo sapiens, UniProt P51532); test: ATPase catalytic activity of BRG-1, ADP-Glo in vitro biochemical assay; conditions: 30 nM BRG-1, 400 μM ATP, read-out: BRG1 IC50
T2 construct: made in house; host or cells: High Five insect cells
T2 sequence (P51532 whole entry): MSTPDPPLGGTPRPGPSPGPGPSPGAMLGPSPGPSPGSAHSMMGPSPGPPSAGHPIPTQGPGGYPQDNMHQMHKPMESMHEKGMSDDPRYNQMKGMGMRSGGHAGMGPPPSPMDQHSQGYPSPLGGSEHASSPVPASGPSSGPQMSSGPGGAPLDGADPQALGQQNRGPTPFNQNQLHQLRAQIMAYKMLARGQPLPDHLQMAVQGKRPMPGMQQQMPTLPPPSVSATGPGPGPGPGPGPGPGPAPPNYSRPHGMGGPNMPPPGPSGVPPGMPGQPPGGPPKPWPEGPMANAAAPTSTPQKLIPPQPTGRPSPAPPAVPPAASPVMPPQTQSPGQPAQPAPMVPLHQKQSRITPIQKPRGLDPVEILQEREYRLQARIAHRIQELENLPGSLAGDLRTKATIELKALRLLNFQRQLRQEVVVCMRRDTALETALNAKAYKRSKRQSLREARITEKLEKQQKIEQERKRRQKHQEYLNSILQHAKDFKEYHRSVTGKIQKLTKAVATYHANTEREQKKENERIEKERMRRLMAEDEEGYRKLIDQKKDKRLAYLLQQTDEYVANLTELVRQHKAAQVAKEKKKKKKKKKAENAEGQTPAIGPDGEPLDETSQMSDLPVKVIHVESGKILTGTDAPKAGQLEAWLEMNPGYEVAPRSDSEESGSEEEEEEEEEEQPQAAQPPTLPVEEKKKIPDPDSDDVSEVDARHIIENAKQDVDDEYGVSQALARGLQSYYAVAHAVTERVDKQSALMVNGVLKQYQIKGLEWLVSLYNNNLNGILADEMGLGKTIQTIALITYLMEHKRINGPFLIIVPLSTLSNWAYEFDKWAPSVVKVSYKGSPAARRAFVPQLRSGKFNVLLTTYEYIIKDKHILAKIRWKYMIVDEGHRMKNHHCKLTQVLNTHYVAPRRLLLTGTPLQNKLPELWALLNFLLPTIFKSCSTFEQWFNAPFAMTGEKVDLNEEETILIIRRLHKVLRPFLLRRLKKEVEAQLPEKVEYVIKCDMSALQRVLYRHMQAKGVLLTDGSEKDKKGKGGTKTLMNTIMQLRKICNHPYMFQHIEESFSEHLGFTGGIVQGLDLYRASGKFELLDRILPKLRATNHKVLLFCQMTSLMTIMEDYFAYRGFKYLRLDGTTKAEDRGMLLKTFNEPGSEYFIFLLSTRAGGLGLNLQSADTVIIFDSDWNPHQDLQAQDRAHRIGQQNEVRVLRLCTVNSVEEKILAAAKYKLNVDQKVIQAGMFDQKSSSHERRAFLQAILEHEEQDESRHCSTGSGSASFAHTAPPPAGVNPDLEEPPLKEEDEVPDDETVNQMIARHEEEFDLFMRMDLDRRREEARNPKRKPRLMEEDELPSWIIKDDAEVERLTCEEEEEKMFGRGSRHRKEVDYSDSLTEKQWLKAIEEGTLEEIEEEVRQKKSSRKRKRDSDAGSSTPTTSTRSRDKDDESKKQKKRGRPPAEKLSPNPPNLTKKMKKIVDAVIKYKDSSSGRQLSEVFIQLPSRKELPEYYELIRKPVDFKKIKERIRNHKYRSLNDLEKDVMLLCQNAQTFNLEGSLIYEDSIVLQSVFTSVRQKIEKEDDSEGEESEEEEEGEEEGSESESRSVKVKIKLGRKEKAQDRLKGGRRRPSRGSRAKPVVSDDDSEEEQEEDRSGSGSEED
Outline: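 In this in vitro format, BRG-1 hydrolysis product ADP is detected via a two-step ADP-Glo workup (ATP removal, then ADP-to-ATP conversion with luciferase detection) followed by a luminescence read.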

[1] = ATPase catalytic activity, ADP-Glo

| IC50 (BRM; ADP-Glo ATPase assay) | Ratio* (BRM; ratio BRG1 IC50 / BRM IC50) | IC50 (BRG-1; ADP-Glo ATPase assay) | IC50 (BRM; [1]) | Ratio* (BRM; ratio of BRG1 IC50 to BRM IC50) | IC50 (BRG-1; [1]) | Ratio* (BRG1 IC50 (μM) divided by BRM IC50 (μM)) (BRM) | SMILES |
| --- | --- | --- | --- | --- | --- | --- | --- |
| 4.5 nM | 6.27 | 27.9 nM |  |  |  |  | O=C(NCc1cc2nc(N3CCCc4ccc(OCC5(F)COC5)cc43)ccc2cn1)c1ccc2c(c1)S(=O)(=O)CCOC2 [Compound 745] |
|  |  |  | 14.6 nM | 10.43 | 152 nM |  | CCN(CC1COC1)c1cccc(-c2ccc3cnc(CNC(=O)c4ccc5c(c4)S(=O)(=O)CCOC5)cc3n2)n1 [Compound 370] |
| 37.6 nM | 11.57 | 436 nM |  |  |  |  | C[C@H]1COCc2ccc(C(=O)NCc3cc4nc(-c5cccc(N6C[C@H]7COC[C@H]7C6)n5)ccc4cn3)cc2S1(=O)=O [Compound 709] |
| 10.5 nM | 16.35 | 172 nM |  |  |  |  | COc1cc(C2CC2)nc2c1CCCN2c1ccc2cnc(CNC(=O)c3ccc4c(c3)S(=O)(=O)CCOC4)cc2n1 [Compound 771] |
| 44.7 nM |  | 469 nM |  |  |  | 10.48 | O=C(NCc1cc2nc(-c3cccc(C4(CF)CC4)n3)ccc2cn1)c1ccc2c(c1)S(=O)(=O)CCOC2 [Compound 120] |
| 89.4 nM |  | 586 nM |  |  |  | 6.55 | CN[C@H]1CCN(c2cccc(-c3ccc4cnc(CNC(=O)c5ccc6c(c5)S(=O)(=O)CCOC6)cc4n3)n2)CC1(F)F [Compound 67] |
|  |  |  | 6.4 nM | 4.21 | 26.9 nM |  | C[C@@H]1CN(c2cccc(-c3ccc4cnc(CNC(=O)c5cnc6c(c5)S(=O)(=O)[C@@H](C)CCC6)cc4n3)n2)C[C@H](C)O1 [Compound 509] |
| 27.5 nM | 4.35 | 120 nM |  |  |  |  | Cc1ccnc2c1CCN2c1ccc2cnc(CNC(=O)c3ccc4c(c3)S(=O)(=O)CCOC4)cc2n1 [Compound 743] |
|  |  |  | 7.3 nM | 12.51 | 91.4 nM |  | O=C(NCc1cc2nc(N3CCCc4ccc(Cl)cc43)ccc2cn1)c1ccc2c(c1)S(=O)(=O)CCOC2 [Compound 533] |
| 286 nM |  | 3170 nM |  |  |  | 11.06 | O=C(NCc1cc2nc(-c3cccc(OC4COC4)c3)ccc2cn1)c1ccc2c(c1)S(=O)(=O)CCOC2 [Compound 242] |
|  |  |  | 42.1 nM | 26.15 | 1100 nM |  | C[C@H]1COCc2ccc(C(=O)NCc3cc4nc(-c5cccc([C@H]6CC6(F)F)n5)ccc4cn3)cc2S1(=O)=O [Compound 392] |
|  |  |  | 10.9 nM | 10.78 | 117 nM |  | CCN(c1cccc(-c2ccc3cnc(CNC(=O)c4ccc5c(c4)S(=O)(=O)CCOC5)cc3n2)n1)[C@@H](C)COC [Compound 372] |
| 25.9 nM |  | 365 nM |  |  |  | 14.09 | O=C(NCc1cc2nc(-c3cccc(N4CC[C@H](F)C4)n3)ccc2cn1)c1ccc2c(c1)S(=O)(=O)CCOC2 [Compound 224] |
| 197 nM |  | 3480 nM |  |  |  | 17.67 | Cc1ccc(C(=O)NCc2cc3nc(-c4cncc(C5CC5)n4)ccc3cn2)cc1S(=O)(=O)N(C)C [Compound 283] |
| 1040 nM | 3.68 | 3810 nM |  |  |  |  | CC1(C)CCN(c2ccc3cnc(CNC(=O)c4ccc5c(c4)S(=O)(=O)CCOC5)cc3n2)c2ncccc21 [Compound 752] |
| 18.1 nM |  | 194 nM |  |  |  | 10.70 | C[C@@H]1CN(c2cccc(-c3cnc4cnc(CNC(=O)c5ccc(Cl)c(S(C)(=O)=O)c5)cc4n3)n2)C[C@H](C)O1 [Compound 41] |
| 29.9 nM | 10.98 | 329 nM |  |  |  |  | O=C(NCc1cc2nc(N3CC(F)Cc4cccnc43)ccc2cn1)c1ccc2c(c1)S(=O)(=O)CCOC2 (stereo not drawn) [Compound 842] |
| 18.3 nM |  | 224 nM |  |  |  | 12.26 | COCCCN(C)c1cccc(-c2ccc3cnc(CNC(=O)c4ccc5c(c4)S(=O)(=O)CCOC5)cc3n2)n1 [Compound 125] |
| 9.6 nM |  | 93.6 nM |  |  |  | 9.74 | CO[C@H]1CCCN(c2cccc(-c3ccc4cnc(CNC(=O)c5ccc6c(c5)S(=O)(=O)CCOC6)cc4n3)n2)C1 [Compound 93] |
|  |  |  | 7.6 nM | 2.68 | 20.3 nM |  | COC1CCS(=O)(=O)c2cc(C(=O)NCc3cc4nc(-c5cccc(N6C[C@@H](C)O[C@@H](C)C6)n5)ccc4cn3)ccc2C1 (stereo partly drawn) [Compound 344] |
| 13.7 nM | 9.88 | 135 nM |  |  |  |  | O=C(NCc1cc2nc(N3CCCc4cc5c(cc43)OCO5)ccc2cn1)c1ccc2c(c1)S(=O)(=O)CCOC2 [Compound 792] |
|  |  |  | 26.6 nM | 16.52 | 439 nM |  | CC1CN(c2cccc(-c3ccc4cnc(CNC(=O)c5ccc6c(c5)S(=O)(=O)C(C)CN6C)cc4n3)n2)CC(C)O1 (stereo not drawn) [Compound 498] |

| IC50 (BRM; ADP-Glo ATPase assay) | Ratio* (BRM; ratio BRG1 IC50 / BRM IC50) | IC50 (BRG-1; ADP-Glo ATPase assay) | IC50 (BRM; [1]) | Ratio* (BRM; ratio of BRG1 IC50 to BRM IC50) | IC50 (BRG-1; [1]) | Ratio* (BRG1 IC50 (μM) divided by BRM IC50 (μM)) (BRM) | SMILES |
| --- | --- | --- | --- | --- | --- | --- | --- |
| 56.5 nM |  | 679 nM |  |  |  | 12.01 | O=C(NCc1cc2nc(-c3cccc(C4CC4)n3)ccc2cn1)c1cnc2c(c1)S(=O)(=O)CCOC2 [Compound 204] |
| 742 nM | 6.49 | 4820 nM |  |  |  |  | Cc1ccc(-c2ccc3cnc(CNC(=O)c4ccc5c(c4)S(=O)(=O)CCOC5)cc3n2)c(=O)n1C [Compound 824] |
| 186 nM |  | 2460 nM |  |  |  | 13.28 | COc1nn([C@H]2C[C@@H](F)C2)cc1-c1ccc2cnc(CNC(=O)c3ccc4c(c3)S(=O)(=O)CCOC4)cc2c1 [Compound 134] |
| 80.5 nM |  | 769 nM |  |  |  | 9.55 | O=C(NCc1cc2nc(-c3cccc(N4CCC(F)(F)CC4)n3)ccc2cn1)c1ccc2c(c1)S(=O)(=O)CCOC2 [Compound 184] |
| 122 nM | 18.41 | 2250 nM |  |  |  |  | CS(=O)(=O)c1cc(C(=O)NCc2cc3nc(N4CCCc5cc(C6CC6)cnc54)ccc3cn2)cnc1C(F)F [Compound 724] |
|  |  |  | 12.2 nM | 6.98 | 85 nM |  | C[C@@H]1CN(c2cccc(-c3ccc4cnc(CNC(=O)c5cc(F)c6c(c5)S(=O)(=O)CCO[C@@H]6C)cc4n3)n2)C[C@H](C)O1 [Compound 516] |
|  |  |  | 42.7 nM | 14.74 | 630 nM |  | O=C(NCc1cc2nc(-c3cccc(OCC4CCC4)n3)ccc2cn1)c1ccc2c(c1)S(=O)(=O)CCOC2 [Compound 375] |
| 466 nM |  | 2620 nM |  |  |  | 5.63 | CC(C)(F)c1cncc(-c2ccc3cnc(CNC(=O)c4ccc5c(c4)S(=O)(=O)CCOC5)cc3n2)n1 [Compound 262] |
| 29 nM | 17.78 | 515 nM |  |  |  |  | O=C(NCc1cc2nc(N3CCCc4cnc(C5CC5)nc43)ccc2cn1)c1ccc2c(c1)S(=O)(=O)CCOC2 [Compound 780] |
| 40.5 nM |  | 367 nM |  |  |  | 9.06 | C[C@@H]1COCCN1c1cccc(-c2ccc3cnc(CNC(=O)c4ccc5c(c4)S(=O)(=O)CCOC5)cc3n2)n1 [Compound 181] |
| 77.1 nM |  | 1080 nM |  |  |  | 14.01 | CN1CCc2c(-c3ccc4cnc(CNC(=O)c5ccc6c(c5)S(=O)(=O)CCOC6)cc4n3)cccc21 [Compound 233] |
| 455 nM |  | 3090 nM |  |  |  | 6.80 | COc1nn([C@H]2C[C@@H](F)C2)cc1-c1ccc2cnc(CNC(=O)c3ccc4c(c3)S(=O)(=O)CCOC4)cc2n1 [Compound 148] |
| 154 nM |  | 1580 nM |  |  |  | 10.23 | CC(c1cccc(-c2ccc3cnc(CNC(=O)c4ccc5c(c4)S(=O)(=O)CCOC5)cc3n2)n1)C(F)F (stereo not drawn) [Compound 203] |
| 620 nM | 6.69 | 4150 nM |  |  |  |  | O=C(NCc1cc2nc(-c3ccc4c(n3)CN(C3CC3)CC4)ccc2cn1)c1ccc2c(c1)S(=O)(=O)CCOC2 [Compound 788] |
|  |  |  | 9.8 nM | 19.48 | 190 nM |  | Cc1cnc2c(c1)OCCN2c1ccc2cnc(CNC(=O)c3cc(Cl)c4c(c3)S(=O)(=O)CCOC4)cc2n1 [Compound 552] |
| 407 nM |  | 5000 nM |  |  |  | 12.29 | COCCc1ccc(C(=O)NCc2cc3nc(-c4cncc(C5CC5)n4)ccc3cn2)cc1S(C)(=O)=O [Compound 207] |
|  |  |  | 60.7 nM | 17.24 | 1050 nM |  | O=C(NCc1cc2nc(-c3cccc(OCC4CC(F)(F)C4)n3)ccc2cn1)c1ccc2c(c1)S(=O)(=O)CCOC2 [Compound 390] |
|  |  |  | 56.8 nM | 14.57 | 828 nM |  | O=C(NCc1cc2nc(-c3cccc4c3CC3COCCN43)ccc2cn1)c1ccc2c(c1)S(=O)(=O)CCOC2 (stereo not drawn) [Compound 421] |
|  |  |  | 30.7 nM | 20.63 | 632 nM |  | CC1CN(c2cccc(-c3ccc4cnc(CNC(=O)c5ccc6c(c5)S(=O)(=O)C(C)COC6C)cc4n3)n2)CC(C)O1 (stereo not drawn) [Compound 540] |
| 290 nM | 7.16 | 2080 nM |  |  |  |  | Cc1nc(C)c2c(n1)N(c1ccc3cnc(CNC(=O)c4ccc5c(c4)S(=O)(=O)CCOC5)cc3n1)CCC2 [Compound 841] |
| 20.5 nM |  | 282 nM |  |  |  | 13.77 | COC1CN(c2cccc(-c3ccc4cnc(CNC(=O)c5ccc6c(c5)S(=O)(=O)CCOC6)cc4n3)n2)C1 [Compound 228] |
